Key:
[1] = test system: ARPE19/HPV16 (HPV Immortalized RPE); experiment: Cell line screen (potency assay); type: cell-based; conditions: ARPE-19, AICDA expression Negative
Protocol: (§1) The first step was to set up a cell killing assay in the Daudi cell line (AID positive). A 96 well u-bottom plate was prepared by writing the experiment number, plate number, date and initials in the top right corner of the plate lid. With a sterile 300 ml reservoir, and 25 ml serological pipette, evaporation buffer media was pipetted into reservoir in 25 ml increments. Using the liquid handler, 150 ul of evaporation buffer media was pipetted from reservoir into rows A and H, and Columns 1 and 12 of the 96 well u-bottom plate. Cell cultures were counted to obtain the density of cells per ml, and the culture viability. The cell density information was used to obtain 1,000,000 cells from culture using a 5 mL serological pipette into an epi tube. The cell density information from the culture was used to calculate the number of cells and volume of media needed for the assay to seed 1250 cells in 130 ul of media per available culture well in the 96 well u-bottom plate. Rows B through F were used for cells (50 wells in total), with row G left for an empty media control. The calculation was overestimated by 10 mL to account for the dead volume in the 300 ml reservoir. Once the media volume was calculated, the appropriate volume of media was pipetted in 25 mL increments into the 250 mL bottle using a 25 mL serological pipette. The 250 ml bottle was capped tightly, and placed into a 37° C. water bath for 2 minutes. While the culture media was warming, 10 mL of fresh media was pipetted from the 500 mL culture media bottle into a sterile 25 mL reservoir. Using the Eppendorf multichannel pipette, 130 ul of media was piptted from the 25 mL reservoir into row G of the 96 well u-bottom plate. Once the 250 mL bottle of media was warmed, the volume of culture needed was pipetted into the bottle, and mixed gently with a 25 mL serological pipette as to not create bubbles, and then the contents of the bottle were pipetted into a new 300 mL reservoir. Using the liquid handler, 130 ul of culture was pipetted from the 300 mL reservoir into rows B through F of the 96 well u-bottom plate. Once the culture was added, the plate was placed into a 37° C. incubator until the compound master plate was prepared for use.
(§2) Two 96 well u-bottom plates were prepared by writing the master plate name in the upper right corner of the plate lid. Labeling one DMSO master and the other Media Master. The compounds of interest were obtained from the laboratory freezer, and placed into a 25 well storage box with a lid, and set the box aside. The compounds were vortexed after thawing but before use. Using an automatic multichannel pipette, 20 ul of 100% DMSO was pipetted into wells B3-B11 through G3-G11 of the DMSO master plate. For each compound on the master plate, 50 ul of the compound were pipetted in the appropriate well of row 2 (reference plate map to determine appropriate well). A serial dilution was prepared beginning by aspirating 20 ul from row 2 and mixing with row 3, repeating until row 11 was reached. Using the liquid handler, 194 ul of Daudi media was dispensed into wells B2-B11 through G2-G11 of the Media master plate. Using the liquid handler, 6 ul from the DMSO master plate was aspirated and dispensed into the media master plate, mixing 100 ul twice.
Compounds from master plate were then added to the culture plate. The culture plates were removed from the incubator, and set inside the biosafety cabinet. Using a liquid handler, 20 ul from wells B2 to B11 through G2 to G11 of master plate were aspirated, and dispensed into wells B2 to B11 through G2 to G11 of culture plate. This set was continued with each culture plate. Once the culture plates acquired their 20 ul of compound dilutions, they were placed back into the incubator, until their reads on Day 7 of experiment. Cell death was measured on Day 7 of the experiment using Cell-Titer Glo and a Promega Plate reader. […]

[2] = test system: Daudi cell line (AID positive); experiment: Primary screening cell killing assay (Cell-Titer Glo, Day 7); type: cell-based; conditions: Homo sapiens, 168 h; Daudi cells (AID positive), cell death on Day 7; read-out: AID+ EC50
Protocol: Primary screening was a phenotypic screen that utilized the synthetic lethal interaction between AID and RAD51 to identify compounds that were both potent and on target. AID expressing cells are dependent upon RAD51 for survival; inhibiting RAD51 in AID positive cells results in a cytotoxic effect.
as §1, §2
Compounds from master plate were then added to the culture plate. The culture plates were removed from the incubator, and set inside the biosafety cabinet. Using a liquid handler, 20 ul from wells B2 to B11 through G2 to G11 of master plate were aspirated, and dispensed into wells B2 to B11 through G2 to G11 of culture plate. This set was continued with each culture plate. […]

[3] = Pharmacokinetic (PK) study; type: in vivo, Rat; conditions: po @ 80 mg/kg (30% PEG400, 10% Vitamin E TPGS in water)
Protocol: PK studies in mice were used to determine the fate of the compounds in a whole organism. Rats were treated with the compounds either orally of via IV at the indicated doses and followed for up to 24 hours. Plasma samples were taken at different time points and analyzed by LC-MS.

[4] = Human liver microsome stability; type: in vitro ADME; conditions: percentage of hepatic blood flow
Protocol: The stability of the claimed compounds was determined in the presences of human liver microsomes. The compounds were incubated with the microsomes at 37° C. for 45 minutes. Samples were analyzed using LC-MS/MS. Data analysis included half-life, clearance rate, and the percentage of hepatic blood flow (% QH) for each of the compounds in the different species.

For `CC(C)OC(=O)Nc1ccc(-c2cnc([C@H]3CC[C@H](NC(=O)OC(C)C)CC3)s2)c(S(=O)(=O)NC(C)(C)C)c1` [Compound 67A, trans-isopropylN-[3-(tert-butylsulfamoyl)-4-[2-[4-(isopropoxycarbonylamino)cyclohexyl]thiazol-5-yl]phenyl]carbamate], which EC50 [1] is on record?
Its EC50 is greater than 10 µM.

What about the EC50 [2] of the same compound?
The EC50 was no more than 1 µM.

And the “F (%) @ 5 mg/kg” value ([3]; Rat Female)?
The value was 86.5%.

And the “F (%) @ 5 mg/kg” value ([3]; Rat Male)?
The value was 46.9%.

And the “Human Liver Microsome Stability % QH” value [4]?
Its value is less than 20.3%.
